Laboratory results: patent publication US8188059B2, “Compounds and methods for modulating expression of GCGR” (Isis Pharmaceuticals, Inc., priority 2006, dated 2012)
Strand notation (5' to 3'): a small letter for the sugar, then the base; units joined by * are phosphorothioate-linked, units joined directly phosphodiester-linked; [ ] holds rarer units or linkages, { } end groups; capitals alone tell only the bases. e = 2'-O-(2-methoxyethyl) (MOE); [5mC] = 5-methylcytosine; d = 2'-deoxy (DNA)

Tested on: PCSK9 mRNA
Type: cell-based, human
Details: Hep3B cells, 100 nM, relative to untreated control cells; for % Inhib (PCSK9 mRNA): 0 = no reduction observed
Experimental: When cells reached appropriate confluency, they were treated with oligonucleotide using LIPOFECTIN® as described. […] Cells were treated and data were obtained in duplicate or triplicate. […] Cells were harvested 16-24 hours after oligonucleotide treatment.
Short antisense compounds targeted to a PCSK9 nucleic acid were tested for their effects on PCSK9 mRNA in vitro. The Isis No, gapmer motif and SEQ ID NO of each short antisense compound are shown again in Table 75. Cultured Hep3B cells were treated with 100 nM of short antisense compound. 5-10-5 MOE gapmers targeted to a PCSK9 nucleic acid were used as positive controls. After the treatment period, RNA was isolated from the cells and PCSK9 mRNA levels were measured by quantitative real-time PCR, as described herein. PCSK9 mRNA levels were adjusted according to total RNA content as measured by RIBOGREEN®. Results are presented in Table 75 as percent inhibition of PCSK9 (% Inhib), relative to untreated control cells.

Substance | % Inhib (PCSK9 mRNA) [%] | % Inhibition Range (PCSK9 mRNA)
400359 (antisense e[5mC]*eA*dT*dG*dG*d[5mC]*dA*dG*d[5mC]*dA*dG*dG*eA*eA) [compound 400359] | 0 | –
400367 (antisense eG*eG*d[5mC]*dT*d[5mC]*d[5mC]*dG*dG*d[5mC]*dA*dG*d[5mC]*eA*eG) [compound 400367] | 12 | 10-20%
400355 (antisense eA*eG*dA*d[5mC]*dA*d[5mC]*d[5mC]*d[5mC]*dT*d[5mC]*dA*d[5mC]*e[5mC]*e[5mC]) [compound 400355] | 0 | –
400310 (eT*e[5mC]*d[5mC]*d[5mC]*dG*dG*d[5mC]*d[5mC]*dG*d[5mC]*dT*dG*eA*e[5mC]; antisense) [compound 400310] | 8 | –
400350 (antisense e[5mC]*e[5mC]*d[5mC]*dT*d[5mC]*dA*d[5mC]*d[5mC]*d[5mC]*d[5mC]*d[5mC]*dA*eA*eA) [compound 400350] | 15 | 10-20%
400349 (antisense e[5mC]*eT*dG*dG*dA*dG*d[5mC]*dA*dG*d[5mC]*dT*d[5mC]*eA*eG) [compound 400349] | 13 | 10-20%
400356 (antisense eT*eA*dG*dA*d[5mC]*dA*d[5mC]*d[5mC]*d[5mC]*dT*d[5mC]*dA*e[5mC]*e[5mC]) [compound 400356] | 0 | –
400338 (eG*eG*dT*d[5mC]*d[5mC]*dT*d[5mC]*dA*dG*dG*dG*dA*eA*e[5mC]; antisense) [compound 400338] | 9 | –
400297 (antisense eA*eT*dG*dG*dG*dG*d[5mC]*dA*dA*d[5mC]*dT*dT*e[5mC]*eA) [compound 400297] | 0 | –
400360 (antisense eG*e[5mC]*dA*dT*dG*dG*d[5mC]*dA*dG*d[5mC]*dA*dG*eG*eA) [compound 400360] | 38 | 30-40%
400335 (e[5mC]*e[5mC]*dT*d[5mC]*dA*dG*dG*dG*dA*dA*d[5mC]*d[5mC]*eA*eG; antisense) [compound 400335] | 0 | –
400333 (eT*e[5mC]*dA*dG*dG*dG*dA*dA*d[5mC]*d[5mC]*dA*dG*eG*e[5mC]; antisense) [compound 400333] | 0 | –
400345 (eT*eG*dG*dG*dT*dG*d[5mC]*dT*dG*dG*dG*dG*eG*eG; antisense) [compound 400345] | 0 | –
400313 (eG*e[5mC]*dA*dT*d[5mC]*d[5mC]*d[5mC]*dG*dG*d[5mC]*d[5mC]*dG*e[5mC]*eT; antisense) [compound 400313] | 10 | 10-20%
